Earlier results in patent US20220218780A1, “Composition for Improving Vascular Endothelial Function or Improving Blood Flow in Peripheral Blood Vessels” (House Wellness Foods Corporation, priority 2018, published 2022).

System: vascular endothelial function
Details: diabetes rat models, continuous oral administration every day, 30 mg/kg and 300 mg/kg body weight

Compound: COc1cc(/C=C/C(=O)CC(=O)/C=C/c2ccc(O)c(OC)c2)ccc1O [curcumin]
- reduction in vascular endothelial function associated with diabetes: improved
